# Results reported in patent publication US20010056071A1, “Use of resveratrol for the treatment of exfoliative eczema, acne and psoriasis” (priority 2000, published 2001).
# Assays:
# acne vulgaris = test: Randomized, double blind study of topical resveratrol (1% cream) in acne vulgaris; type: in vivo, patients; conditions: 1% cream daily for 10 weeks
# Experimental: A randomized, double blind study was carried out in order to evaluate the effectiveness of topical administration of resveratrol in the treatment of acne vulgaris. Patients (n=30) of 15 to 19 years were all suffering from II or III degree acne (according to Pillsbury's classification), with multiple inflammatory lesions (20 to 62) and a number of comedos (28 to 120) on face and forehead. Only subjects who had received no systemic treatment with antibiotics for at least 4 weeks and had used no topical medicaments for 2 weeks before treatment were selected. During treatment with resveratrol, no further topical treatment was allowed. The effectiveness of the therapy was evaluated by comparing the conditions of the lesions before and after the treatment, according to an arbitrary score of 0 to 5 (0=worsening; 1=no changes; 2=slight improvement; 3=modest improvement; 4=good improvement; 5=excellent improvement).
# Treatment consisted of daily topical administrations of resveratrol (1% cream) or of the carrier only, for 10 weeks in 30 patients suffering from acne vulgaris. The evaluated parameters were: number of acne lesions and comedos, erythema, seborrhoic skin and skin scaling.
# chronic psoriasis = test: Multi-center, double blind study of ointments in mild to moderate chronic psoriasis; type: in vivo, patients; conditions: for percentage of patients healed or showing marked improvement (treatment effective): ointment twice a day for one month, 1% resveratrol, calcipotriol 50 mg/g, or both, 12 patients per group, control 10%
# Excerpt: A prospectic, multi-center, double bind study was effected on patients of both sexes, of age above 18 years, with a clinical diagnosis of mild to moderate chronic psoriasis, with affected areas of at least 100 cm^2, but not above 40% of the total body area. Patients with pustular psoriasis or with psoriasis guttata, those who had received either topical treatment for two weeks before the test or systemic treatment in the 8 weeks before the test, as well as pregnant and nursing women or patients receiving more than 400 IU of vitamin D daily or any other medicament potentially affecting the progress of the disease, were excluded.
# Out of 48 patients, 12 were included in the resveratrol-treated group (1% resveratrol ointment), 12 in the control group (ointment with no resveratrol), 12 in a group treated with a Vitamin D derivative (calcipotriol 50 mg/g) and 12 in a group treated with the combination resveratrol/Vitamin D derivative (1% resveratrol/50 mg/g calcipotriol). […] Patients were treated twice a day for one month with the different ointments.
# At the end of the treatment, the clinical response was evaluated as “healed”, “marked improvement”, “slight improvement”, “no changes”, “worsening”. Quality life evaluations were carried out before and after the treatment, by using the “psoriasis Disability Index” (PDI) and the “Sickness Impact Profile” (SIP). The PDI questionnaire included 15 questions as follows: daily activities (5 questions), work or school, if applicable, (3 questions), personal relationships, (2 questions), spare time (4 questions), treatment, (1 question). […] The purpose of said questions was to evaluate symptoms and feelings of the patients concerning their psoriasis during the first 4 weeks of treatment.
# [1] = system: severe disabling exfoliative eczema; test: Clinical study of 1% resveratrol ointment in exfoliative eczema (six-area/six-sign score); type: in vivo, patients
# Experimental: Experiments were carried out on patients (n=20) of both sexes, of age above 18 years, suffering from severe disabling exfoliative eczema unresponsive to the current topical treatments.
# All patients were subjected to complete blood count and measurements of renal and hepatic functions prior to treatment. Patients who had been systemically treated two months previously with corticoids, antibiotics, psoralenes and other immunosuppressants or with UV were excluded. Patients were supposed not to use any corticoid topically.
# Out of 20 patients, 10 were included in the resveratrol-treated group (1% resveratrol ointment) and 10 in the control group (ointment with no resveratrol). […] Patients were divided in two groups and treated twice a day for six months either with the resveratrol-containing ointment or with the placebo ointment (control group).
# The progress of the disease was monitored by using the “six-area/six-sign score” method. The severity of the six signs used for monitoring the disease (erythema, pustules, excoriations, dehydration, scaling of the skin and lichenification), was evaluated on a 0-3 score (none, mean, moderate and severe), in each of the six body areas tested (head, neck, hands, elbows, feet, legs and trunk). The severity of itching and of sleep disorders was evaluated on a 0-3 score (none, mean, moderate and severe).
# [2] = system: neutrophils, circulating cells, cells at the lesion site; test: General observations during and after topical treatment with resveratrol; type: in vivo
# [3] = end of six months treatment, 10 treated patients
compound,measurement,setting,value
"Oc1ccc(/C=C/c2cc(O)cc(O)c2)cc1 [resveratrol, 3,4′,5-trihydroxy-trans-stilbene]",cases in which effectiveness was due to the reduction of follicle hyperkeratosis,acne vulgaris,95%
same,side effects,acne vulgaris,neither systemic nor topical side effects
same,"treated subjects with significant reduction of erythema, number of acne lesions, comedos and scaling",acne vulgaris; control subjects 2%,96%
same,reduction in the total PDI score,"chronic psoriasis; after treatment, 95% CI 4.4, 8.6, P=0.001, control group 1.7",6.5
same,percentage of patients healed or showing marked improvement (treatment effective),chronic psoriasis,80%
same,mean of the values concerning the different clinical symptoms (six-area/six-sign score),"[1]; 1% resveratrol ointment twice a day, after the first two weeks of treatment, baseline 57.0 (SEM 1.6, n=10)",21.5
same,body area affected by eczema,"[1]; during treatment, baseline 69% on the average",27%
same,number of treated patients showing improvements only concerning skin scaling,[1]; [3],two
same,number of treated patients with significant improvements of all the considered parameters,[1]; [3],8 patients
same,mean score for itching (0-3),"[1]; end of the treatment, baseline 2.3",0.6
same,mean score for sleep disorders (0-3),"[1]; end of the treatment, baseline 2.9",1.0
same,"neutrophils activity, circulating cells, cells at the lesion site",[2]; after topical treatment,no changes of neutrophils activity
same,systemic or topical effects during and after the treatment,[2]; topical use,neither systemic nor topical effects
"C=C1/C(=C\C=C2/CCC[C@]3(C)[C@@H]([C@H](C)/C=C/[C@@H](O)C4CC4)CC[C@@H]23)C[C@@H](O)C[C@@H]1O [Vitamin D derivatives, calcipotriol, reference compound]",percentage of patients healed or showing marked improvement (treatment effective),chronic psoriasis,47%
